Assay results reported in article PMC5698418 (Nature Communications, 2017).
Structures can show the parent of a compound that is named as a salt. Where two headings read alike, the source gives them in different places. Non-standard residues stand in square brackets, D forms with d. Residues, ends and D or L forms follow the SMILES beside them. dTrp(2-Me) = Cc1[nH]c2ccccc2c1C[C@@H](N)C(=O)O

System: BDNF-induced nuclear Arc expression in primary cortical neurons
Assay: Chemogenomic screen: high-content image-based assay of BDNF-induced nuclear Arc expression (96-well)
Assay type: cell-based, mouse
Outline: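 Nuclear Arc immunofluorescence is quantified automatically within an acetyl-H3K9-defined nuclear mask from ×40 images. Cultures are DIV13 mouse forebrain cortical neurons seeded at 30,000 per well and exposed to BDNF plus compound at a final 16.7 µM, with triplicate biological replicates.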

[1] = chemogenomic (SMART) screen, BDNF-induced nuclear Arc expression, primary cortical neurons, BDNF control 19.5
[2] = nuclear Arc-positive cells relative to DMSO + BDNF control, negative values = decrease
[3] = BDNF-induced nuclear Arc expression, primary cortical neurons, chemogenomic screen
[4] = nuclear Arc-positive cells relative to DMSO control (BDNF), negative = decrease

## CNS(=O)(=O)Cc1ccc2[nH]cc(CCN(C)C)c2c1 [Sumatriptan succinate]
[1]
  Percentage of cell with nuclear Arc immunostaining above 2σ threshold: 23.4%
[2]
  Fold-change — Normalized to DMSO control (BDNF): 1.2 fold

## O=C(CCCCCCC(=O)Nc1ccccc1)NO [Vorinostat]
[1]
  Percentage of cell with nuclear Arc immunostaining above 2σ threshold: 19.8%
[2]
  Fold-change — Normalized to DMSO control (BDNF): 1.0 fold

## CN1C[C@H](C(=O)N[C@]2(C)O[C@@]3(O)[C@@H]4CCCN4C(=O)[C@H](Cc4ccccc4)N3C2=O)C[C@@H]2c3cccc4[nH]cc(c34)C[C@H]21.CN1C[C@H](C(=O)N[C@]2(C)O[C@@]3(O)[C@@H]4CCCN4C(=O)[C@H](Cc4ccccc4)N3C2=O)C[C@@H]2c3cccc4[nH]cc(c34)C[C@H]21.O=C(O)C(O)C(O)C(=O)O [Dihydroergotamine tartrate]
[1]
  Percentage of cell with nuclear Arc immunostaining above 2σ threshold: 22.0%
[2]
  Fold-change — Normalized to DMSO control (BDNF): 1.1 fold

## COc1ccc2c3c([nH]c2c1)C(C)=NCC3 [Harmaline]
  Percentage of cell with nuclear Arc immunostaining above 2σ threshold: 28.8%
[2]
  Fold-change — Normalized to DMSO control (BDNF): 1.5 fold

## NC[C@H](CC(=O)O)c1ccc(Cl)cc1 [(R)-Baclofen]
[1]
  Percentage of cell with nuclear Arc immunostaining above 2σ threshold: 31.8%
[2]
  Fold-change — Normalized to DMSO control (BDNF): 1.6 fold

## CCNC1=Nc2ccc(Cl)cc2C(C)(c2ccccc2)O1 (centres unmarked) [Etifoxine]
  Percentage of cell with nuclear Arc immunostaining above 2σ threshold: 0.0%

## COc1ccc(C(=O)NCc2ccc(OCCN(C)C)cc2)cc1OC.Cl [Itopride hydrochloride]
  Percentage of cell with nuclear Arc immunostaining above 2σ threshold: 23.8%
[2]
  Fold-change — Normalized to DMSO control (BDNF): 1.2 fold

## Cc1[nH]c2ccccc2c1C[C@@H](NC(=O)[C@@H](N)Cc1cnc[nH]1)C(=O)N[C@@H](C)C(=O)N[C@@H](Cc1c[nH]c2ccccc12)C(=O)N[C@H](Cc1ccccc1)C(=O)N[C@@H](CCCCN)C(N)=O [Hexarelin] (H-H[dTrp(2-Me)]AW[dF]K-NH2)
[1]
  Percentage of cell with nuclear Arc immunostaining above 2σ threshold: 17.9%
[2]
  Fold-change — Normalized to DMSO control (BDNF): -1.1 fold

## CNCC(O)c1ccc(O)cc1 (centres unmarked) [Synephrine]
[1]
  Percentage of cell with nuclear Arc immunostaining above 2σ threshold: 27.8%
[2]
  Fold-change — Normalized to DMSO control (BDNF): 1.4 fold

## Cn1sc(=O)n(Cc2ccccc2)c1=O [TDZD-8]
[3]
  Percentage of cell with nuclear Arc immunostaining above 2σ threshold: 1.7%
[4]
  Fold-change — Normalized to DMSO control (BDNF): -11.7 fold

## OCCN1CCN(CCCN2c3ccccc3Sc3ccc(Cl)cc32)CC1 [Perphenazine]
[3]
  Percentage of cell with nuclear Arc immunostaining above 2σ threshold: 1.0%

## CN(C)CC(c1ccc(O)cc1)C1(O)CCCCC1 (centres unmarked) [Desvenlafaxine]
[1]
  Percentage of cell with nuclear Arc immunostaining above 2σ threshold: 33.0%
[2]
  Fold-change — Normalized to DMSO control (BDNF): 1.7 fold

## C[C@@](Cc1ccc(O)c(O)c1)(NN)C(=O)O [Carbidopa]
[1]
  Percentage of cell with nuclear Arc immunostaining above 2σ threshold: 36.1%
[2]
  Fold-change — Normalized to DMSO control (BDNF): 1.9 fold

## O=c1cc(-c2ccccc2)oc2c(O)c(O)ccc12 [7,8-Dihydroxyflavone]
[1]
  Percentage of cell with nuclear Arc immunostaining above 2σ threshold: 32.7%
[2]
  Fold-change — Normalized to DMSO control (BDNF): 1.7 fold

## COc1cc(C(C)=O)ccc1OCCCN1CCC(c2noc3cc(F)ccc23)CC1 [Iloperidone]
[3]
  Percentage of cell with nuclear Arc immunostaining above 2σ threshold: 8.3%

## CCN(CC)C(=O)/C(C#N)=C/c1cc(O)c(O)c([N+](=O)[O-])c1 [Entacapone]
[1]
  Percentage of cell with nuclear Arc immunostaining above 2σ threshold: 27.9%
[2]
  Fold-change — Normalized to DMSO control (BDNF): 1.4 fold

## CN1C(=O)CC(c2ccccc2)C1=O (centres unmarked) [Phensuximide]
[1]
  Percentage of cell with nuclear Arc immunostaining above 2σ threshold: 24.8%
[2]
  Fold-change — Normalized to DMSO control (BDNF): 1.3 fold

## COc1ccc(-c2oc3c(CC=C(C)C)c(O[C@@H]4O[C@H](CO)[C@@H](O)[C@H](O)[C@H]4O)cc(O)c3c(=O)c2O[C@@H]2O[C@@H](C)[C@H](O)[C@@H](O)[C@H]2O)cc1 [Icariin]
[1]
  Percentage of cell with nuclear Arc immunostaining above 2σ threshold: 43.8%
[2]
  Fold-change — Normalized to DMSO control (BDNF): 2.2 fold

## O=C1CC2(CCCC2)CC(=O)N1CCCCN1CCN(c2ncccn2)CC1 [Buspirone]
[3]
  Percentage of cell with nuclear Arc immunostaining above 2σ threshold: 10.3%

## CCCN(CCC)CCc1cccc2c1CC(=O)N2 [Ropinirole]
[1]
  Percentage of cell with nuclear Arc immunostaining above 2σ threshold: 14.2%

## CNCC[C@@H](Oc1ccccc1C)c1ccccc1 [Atomoxetine]
[1]
  Percentage of cell with nuclear Arc immunostaining above 2σ threshold: 17.6%

## Cc1ccc2c(c1)c1c3n2CCNC3CCC1 (centres unmarked) [Pirlindole]
[1]
  Percentage of cell with nuclear Arc immunostaining above 2σ threshold: 15.3%

## COc1cccc([C@H](O)C2CCN(CCc3ccc(F)cc3)CC2)c1OC [Volinanserin]
[3]
  Percentage of cell with nuclear Arc immunostaining above 2σ threshold: 9.0%

## Oc1noc2c1CCNC2 [Gaboxadol]
  Percentage of cell with nuclear Arc immunostaining above 2σ threshold: 13.6%

## CN[C@H]1CC[C@@H](c2ccc(Cl)c(Cl)c2)c2ccccc21 [Sertraline]
[3]
  Percentage of cell with nuclear Arc immunostaining above 2σ threshold: 0.0%

## O=C(c1ccc2c(c1)OCCO2)N1CCCCC1 [CX-546]
  Percentage of cell with nuclear Arc immunostaining above 2σ threshold: 6.5%
[4]
  Fold-change — Normalized to DMSO control (BDNF): -3.0 fold

## COc1cc(/C=C/C(=O)C(=Cc2ccc(F)c(F)c2)C(=O)/C=C/c2ccc(O)c(OC)c2)ccc1O [3,4-Difluorobenzocurcumin]
[3]
  Percentage of cell with nuclear Arc immunostaining above 2σ threshold: 1.4%
[4]
  Fold-change — Normalized to DMSO control (BDNF): -14.1 fold

## O=C1c2ccccc2S(=O)(=O)N1CCCCN1CCN(c2ncccn2)CC1 [Ipsapirone]
[1]
  Percentage of cell with nuclear Arc immunostaining above 2σ threshold: 27.4%
[2]
  Fold-change — Normalized to DMSO control (BDNF): 1.4 fold

## Cc1ccc(Sc2ccccc2N2CCNCC2)c(C)c1 [Vortioxetine]
[3]
  Percentage of cell with nuclear Arc immunostaining above 2σ threshold: 0.0%

## CC(C)C[C@H](CN)CC(=O)O [Pregabalin]
  Percentage of cell with nuclear Arc immunostaining above 2σ threshold: 8.5%

## CCN1CCC[C@H]1CNC(=O)c1cc(S(N)(=O)=O)ccc1OC [Levosulpiride]
[1]
  Percentage of cell with nuclear Arc immunostaining above 2σ threshold: 28.2%
[2]
  Fold-change — Normalized to DMSO control (BDNF): 1.4 fold

## OC(CCN1CCCC1)(c1ccccc1)C1CCCCC1 (centres unmarked) [Procyclidine hydrochloride]
[1]
  Percentage of cell with nuclear Arc immunostaining above 2σ threshold: 19.3%

## COc1ccccc1C1(O)CCN(CCCn2c3ccccc3c3ccccc32)CC1 [NNC 05-2090]
  Percentage of cell with nuclear Arc immunostaining above 2σ threshold: 0.0%
[4]
  Fold-change — Normalized to DMSO control (BDNF): 0.0 fold

## CC(C)n1c(=O)n(C(=O)NC2CC3CCC(C2)N3C)c2ccccc21 (centres unmarked) [BIMU-8]
  Percentage of cell with nuclear Arc immunostaining above 2σ threshold: 16.3%
[2]
  Fold-change — Normalized to DMSO control (BDNF): -1.2 fold

## O=C1[C@@H]2[C@H]3CC[C@H](C3)[C@@H]2C(=O)N1C[C@@H]1CCCC[C@H]1CN1CCN(c2nsc3ccccc23)CC1 [Lurasidone]
[1]
  Percentage of cell with nuclear Arc immunostaining above 2σ threshold: 39.0%
[2]
  Fold-change — Normalized to DMSO control (BDNF): 2.0 fold

## O=c1c(O)c(-c2ccc(O)cc2)oc2cc(O)cc(O)c12 [Kaempferol]
[3]
  Percentage of cell with nuclear Arc immunostaining above 2σ threshold: 4.0%

## CCN1CCCC1CNC(=O)c1cc(S(N)(=O)=O)ccc1OC (centres unmarked) [Sulpiride]
[1]
  Percentage of cell with nuclear Arc immunostaining above 2σ threshold: 26.5%
[2]
  Fold-change — Normalized to DMSO control (BDNF): 1.4 fold

## COC[C@@H](NC(C)=O)C(=O)NCc1ccccc1 [Lacosamide]
  Percentage of cell with nuclear Arc immunostaining above 2σ threshold: 6.7%

## CCOc1ccc(Cc2nccc3cc(OCC)c(OCC)cc23)cc1OCC [Ethaverine]
[3]
  Percentage of cell with nuclear Arc immunostaining above 2σ threshold: 1.3%

## COc1ccc(/C=C/c2cc(OC)cc(=O)o2)cc1 [Yangonin]
[1]
  Percentage of cell with nuclear Arc immunostaining above 2σ threshold: 29.7%
[2]
  Fold-change — Normalized to DMSO control (BDNF): 1.5 fold

## NC(=O)N1c2ccccc2C=Cc2ccccc21 [Carbamazepine]
[3]
  Percentage of cell with nuclear Arc immunostaining above 2σ threshold: 7.2%

## COc1cc2c(cc1OC)[C@@H]1Cc3ccc(OC)c(OC)c3CN1CC2 [Rotundine]
[1]
  Percentage of cell with nuclear Arc immunostaining above 2σ threshold: 28.7%
[2]
  Fold-change — Normalized to DMSO control (BDNF): 1.5 fold

## CCOC(=O)Nc1ccc(NCc2ccc(F)cc2)cc1N [Retigabine]
  Fold-change — Normalized to DMSO control (BDNF): 1.7 fold
  Percentage of cell with nuclear Arc immunostaining above 2σ threshold: 32.9%

## C[C@]12COC(=O)C[C@@H]1CC[C@@H]1[C@@H]2CC[C@@]2(C)[C@H]1CC[C@]2(C)O [Oxandrolone]
  Percentage of cell with nuclear Arc immunostaining above 2σ threshold: 33.5%
[2]
  Fold-change — Normalized to DMSO control (BDNF): 1.7 fold

## CCN(CC)C(=O)C1(c2ccccc2)CC1CN (centres unmarked) [Milnacipran]
[1]
  Percentage of cell with nuclear Arc immunostaining above 2σ threshold: 13.2%

## C[C@H](O)[C@H](O)[C@H]1CNc2nc(N)[nH]c(=O)c2N1 [Sapropterin]
[1]
  Percentage of cell with nuclear Arc immunostaining above 2σ threshold: 49.8%
[2]
  Fold-change — Normalized to DMSO control (BDNF): 2.6 fold

## CC1Nc2ccc(Cl)cc2S(=O)(=O)N1 (centres unmarked) [IDRA-21]
[1]
  Percentage of cell with nuclear Arc immunostaining above 2σ threshold: 12.2%
[2]
  Fold-change — Normalized to DMSO control (BDNF): -1.6 fold

## O=c1cccc2n1C[C@@H]1CNC[C@H]2C1 [Cytisine]
  Percentage of cell with nuclear Arc immunostaining above 2σ threshold: 15.7%

## C[C@H](NC[C@H](O)CP(=O)(O)Cc1ccccc1)c1ccc(Cl)c(Cl)c1 [CGP 55845]
  Percentage of cell with nuclear Arc immunostaining above 2σ threshold: 24.6%
[2]
  Fold-change — Normalized to DMSO control (BDNF): 1.3 fold

## CC(C)(N)C(=O)N[C@H](COCc1ccccc1)C(=O)N1CCC2(CC1)CN(S(C)(=O)=O)c1ccccc12 [Ibutamoren]
[3]
  Percentage of cell with nuclear Arc immunostaining above 2σ threshold: 7.1%
